Some results are limits rather than exact numbers.

The subject of data set [1] is over 400 different protein kinases and 20 phosphatases. Description: Kinase and phosphatase inhibition, three in vitro assay systems. The data set is classed as biochemical. As for the experimental part: Initial assays were performed with PC3 and PC3-M cells (PC3 cell data not shown). However, as these studies yielded similar findings, subsequent screening assays utilized only PC3-M cells. In designing chemical synthetic routes, priority was given to efficacy and toxicity parameters. Additional design features were also included in our chemical […]
toxicity parameters. These additional design features included removal of fragments that mediated genistein binding to the estrogen receptor (ER), as determined by ER-genistein 3D x-ray crystal structures (Protein Data Base IDs:1X7R and 1X7J, for crystal structures of ERα and ERβ with bound genistein, respectively). These features also included removal of chemical fragments that are considered to increase susceptibility to rapid metabolism, especially that by the cytochrome P450 (CYP) pathway. The final feature involved incorporation of chemical characteristics previously shown to be associated with effective drugs and which together generally impart more favorable pharmacologic properties, including those described by Lipinski […]
Supplementary Note 2. […] Three […]
different assays systems were employed.
Kinase assay system #1. The KINOMEscan™ assay (Ambit Biosciences). This assay evaluates 442 kinases, including 400 distinct parental kinases plus mutants known to alter activity or responsiveness. […]

A short description of data set [2]: Three-day MTT cell growth inhibition assay, 1542CPTX. Format: cell-based, human. The note with it: human, 1542CPTX cells.
Data set [3] is described as follows: Three-day MTT cell growth inhibition assay, PC3. The data set is classed as cell-based, human. The note with it: human, PC3 cells.
A further data set relates to PC3. Description: Three-day MTT cell growth inhibition assay, PC3. The data set is classed as cell-based, human. The note with it: Homo sapiens, PC-3, 72 h, 3 days.
The next data set has as its system NCI-60 cell line panel. Description: NCI 60 cell line panel screening. The note with it: initial screening per DTP protocol. Format: cell-based, human. On the procedure:
panel. KBU2046 was submitted to the Developmental Therapeutics Program (DTP) of the US National Cancer Institute (NCI), underwent initial screening across the NCI 60 cell line panel per DTP protocol 1, and the resultant COMPARE diagram is depicted above. Based upon its lack of […]
Supplementary Figure 3. […] Estrogen […]
receptor positive MCF-7 cells were cultured under hormone free conditions transfected pERE-Luc or empty control vector, along with constitutive active β-gal, grown under estrogen-free conditions, and pre-treated for 24 hours with nanomolar concentrations of estradiol, or with micromolar concentrations of genistein or KBU2046, as indicated. Luciferase activity was measured, normalized to that of β-gal, and values expressed as the percent of untreated vector control cells. Values are the mean±SD of a single experiment, with similar results seen in a separate repeat experiment, both in replicates of N=2.
(also on this page, place not known: luciferase/B-gal activity, % untreated vector control)
(1 picture or pasted object on this page, not shown here)

For data set [4], the target named is T1, Isovaleryl-CoA dehydrogenase (Homo sapiens, UniProt P26440).
T1 construct: purchased Invitrogen
Description: ProtoArray binding, Isovaleryl-CoA dehydrogenase. The note with it: 10 fold excess free KBU2046. As for the experimental part: The ProtoArray® assay, using the Human Protein Microarray platform, was performed by Invitrogen. […]
followed by detection with FITC-streptavidin, and visualization by fluorescent microscopy (with equal exposure times). (d) Protein array hybridization. KBU2046-biotin was hybridized to ProtoArray® Human Protein Microarray’s at 0.5 and 10 µM with and without 10 fold excess free KBU2046. We first sought proteins that met the following criteria, and did so at both 0.5 and 10 µM concentrations of KBU2046-biotin (in the absence of free KBU2046): Z-Score greater than 2.5, Z-Factor greater than 0.5, CI P-value less than 0.05, negative control value <2,000 (relative fluorescence units; RFUs), and a signal/negative control signal of >10 and >5 for 10 µM and 0.5 µM conditions, respectively. This yielded 3 proteins, shown in table, for an initial hit rate of 0.03%. We then required free KBU2046 to inhibit binding by >75%. Of the two remaining candidates, we eliminated isovaleryl-CoA dehydrogenase (ICD). Its binding signal doubled on […]
suspected non-specific binding by the biotin-linker moiety. We deemed cysteine and glycine-rich protein 1 (CSRP1) our top priority protein, though its binding characteristics at 10 µM + free KBU2046 were similar to ICD, albeit not as extreme. We thus evaluated whether KBU2046- […]
There were two additional notable findings from protein array studies. […]

T1 sequence (P26440 33-426): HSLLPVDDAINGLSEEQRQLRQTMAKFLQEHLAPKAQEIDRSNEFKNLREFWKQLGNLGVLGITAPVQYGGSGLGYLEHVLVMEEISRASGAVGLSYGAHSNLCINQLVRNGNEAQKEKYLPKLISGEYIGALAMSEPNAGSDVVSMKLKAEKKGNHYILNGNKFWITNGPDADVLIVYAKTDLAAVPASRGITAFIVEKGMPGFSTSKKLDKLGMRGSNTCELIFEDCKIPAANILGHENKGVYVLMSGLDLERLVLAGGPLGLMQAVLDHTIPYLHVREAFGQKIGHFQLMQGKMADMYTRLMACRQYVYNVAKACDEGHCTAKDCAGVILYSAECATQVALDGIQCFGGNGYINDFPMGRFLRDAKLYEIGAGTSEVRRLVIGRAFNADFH

Take `O=C1c2ccccc2OCC1c1ccc(F)cc1` (racemic) [KBU2046, (±)-3(4-fluorophenyl)chroman-4-one]: the “inhibition of protein kinases and phosphatases” value in data set [1] is listed as “failure to inhibit”. Moreover, the results for the viability at 3 days, 50 µM in data set [2] and in data set [3] were 104% and 88.1%, respectively. In the data set on PC3, this compound showed an IC20 of over 50 µM. The same compound returned a half-maximal inhibitory concentration (IC50) with PC3 of over 50 µM. In the data set on NCI-60 cell line panel, the “toxicity to NCI-60 cells” value is “not toxic”. The “% inhibition by competitor” value in data set [4] (0.5 uM KBU2046-biotin) was found to be 80%; in data set [4] (10 uM KBU2046-biotin) it was 12%.

Source of the values: PMC6014988, “Precision therapeutic targeting of human cancer cell motility” (Nature Communications, 2018).
